For the test, the target named is T1, human recombinant mGluR5 (Homo sapiens, UniProt P41594).
T1 construct: expressed in transfected cells; host or cells: HEK 293 cell line cultured with tetracycline, hygromycin and geneticin; tetracycline removed 3-7 days before the assay
T1 sequence (P41594 21-1212): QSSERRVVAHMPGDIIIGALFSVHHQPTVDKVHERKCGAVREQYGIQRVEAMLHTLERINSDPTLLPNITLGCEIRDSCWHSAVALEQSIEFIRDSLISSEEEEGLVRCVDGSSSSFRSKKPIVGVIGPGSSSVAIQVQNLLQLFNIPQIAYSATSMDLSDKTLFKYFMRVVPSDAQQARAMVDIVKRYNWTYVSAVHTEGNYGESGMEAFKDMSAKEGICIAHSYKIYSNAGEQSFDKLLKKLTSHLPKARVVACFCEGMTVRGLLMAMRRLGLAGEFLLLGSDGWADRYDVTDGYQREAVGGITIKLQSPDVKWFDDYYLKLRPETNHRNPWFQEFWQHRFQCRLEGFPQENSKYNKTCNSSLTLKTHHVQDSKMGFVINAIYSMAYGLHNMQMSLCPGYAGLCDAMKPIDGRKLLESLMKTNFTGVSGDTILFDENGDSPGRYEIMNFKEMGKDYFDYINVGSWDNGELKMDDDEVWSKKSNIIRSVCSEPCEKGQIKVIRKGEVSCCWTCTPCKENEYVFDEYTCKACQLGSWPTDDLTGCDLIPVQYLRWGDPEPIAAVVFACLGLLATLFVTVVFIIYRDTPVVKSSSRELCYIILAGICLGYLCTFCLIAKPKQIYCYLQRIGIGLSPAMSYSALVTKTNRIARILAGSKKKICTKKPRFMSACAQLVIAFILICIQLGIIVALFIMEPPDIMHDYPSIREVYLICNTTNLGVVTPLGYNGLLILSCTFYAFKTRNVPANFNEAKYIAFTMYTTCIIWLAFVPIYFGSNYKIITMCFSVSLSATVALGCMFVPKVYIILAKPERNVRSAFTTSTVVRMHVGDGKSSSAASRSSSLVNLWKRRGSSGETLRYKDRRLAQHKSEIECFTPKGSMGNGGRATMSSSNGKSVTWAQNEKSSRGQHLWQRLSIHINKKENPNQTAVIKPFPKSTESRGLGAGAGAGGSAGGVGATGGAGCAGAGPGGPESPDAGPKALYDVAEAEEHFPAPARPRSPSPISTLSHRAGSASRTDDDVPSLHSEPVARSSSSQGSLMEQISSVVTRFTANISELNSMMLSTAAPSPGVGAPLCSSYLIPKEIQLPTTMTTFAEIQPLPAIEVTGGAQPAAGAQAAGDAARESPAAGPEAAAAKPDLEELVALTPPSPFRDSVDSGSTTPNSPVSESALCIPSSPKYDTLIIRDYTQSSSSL
Description: positive modulation of mGluR5, calcium based FLIPR assay in HEK 293 cells. Conditions: HEK 293 cell line expressing human recombinant mGluR5; EC50 of the modulation of the glutamate response (glutamate approx. 5% basal stimulation); peak height of Ca release fluorescence signal. In a few lines:
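Potentiation EC50 derived by nonlinear fit of peak calcium fluorescence after a near-5%-maximal glutamate challenge, following 5 min compound exposure (intrinsic activity also recorded). Dye-loaded recombinant human mGluR5 HEK 293 cells in Ringer solution pH 7.4, 1% DMSO; plate controls were vehicle (100%) and 10 μM CDPPB (200%).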
As a reminder, the EC50 is the concentration needed to bring the measured effect to its halfway point. `COc1ccnc(N2CCN(C(=O)Cn3nc(-c4ccc(F)c(C)c4)nc3C3CCCCC3)CC2)c1` [Example 07.04.068.]: the concentration for a half-maximal effect (EC50) is 246 nM.

For `CCCc1nc(-c2ccc(OC(F)F)cc2)nn1CC(=O)N1CCN(c2ncccn2)CC1` [Example 7.04.168], the EC50 amounted to 249 nM.

For `COc1cc(N2CCN(C(=O)Cn3nc(-c4ccc(F)c(C)c4)nc3C3CCCC(C)C3)CC2)ncn1` (centres unmarked) [Example 07.04.147.], the 50% effective concentration (EC50) came to 713 nM.

As for `O=C(Cn1nc(-c2ccc(F)cc2)nc1-c1ccc(F)cc1)N1CCN(c2cc(OCCOCCOCCO)ncn2)CC1` [Example 07.09.16.], the EC50 was determined as 173 nM.

In the case of `Cc1cc(-c2nc(-c3ccccc3)n(CC(=O)N3CCN(c4ccccn4)CC3)n2)ccc1F` [Example 07.04.061.], the EC50 came out at 67 nM.

For the compound `Cc1ccnc(N2CCN(C(=O)Cn3nc(-c4ccc(F)cc4)nc3C3CCCCC3)CC2)c1` [Example 07.04.030.], the 50% effective concentration (EC50) amounted to 1420 nM.

On to `COc1ccc(-c2nc(C3CCCCC3)n(CC(=O)N3CCN(c4ncccn4)CC3)n2)cc1` [Example 07.02.24.], for which the concentration for a half-maximal effect (EC50) was 229 nM.

`N#Cc1cccc(-c2nc(-c3ccccc3)n(CC(=O)N3CCN(c4ncccn4)CC3)n2)c1` [Example 07.10.06.]: the EC50 turned out to be 164 nM.

Consider `CCOc1ccc(-c2nc(-c3ccccc3)n(CC(=O)N3CCN(c4ncccn4)CC3)n2)cc1` [Example 07.10.13.], for which the EC50 was determined as 77 nM.

As for `O=C(Cn1nc(-c2ccc(F)cc2)nc1-c1ccc(F)cc1)N1CCN(c2cc(N3CCC(O)CC3)ncn2)CC1` [Example 07.08.02.], the EC50 stood at 284 nM.

For the compound `CCCc1nc(-c2ccc(F)c(C)c2)nn1CC(=O)N1CCN(c2ncccn2)CC1` [Example 07.04.085.], the EC50 came to 379 nM.

As to `O=C(Cn1nc(-c2ccc(F)cc2)nc1-c1ccc(F)cc1)N1CCN(c2cc(OCc3ccccn3)ncn2)CC1` [Example 07.09.13.], the half-maximal effective concentration (EC50) was found to be 47 nM.

As for `O=C1CC(COc2cc(N3CCN(C(=O)Cn4nc(-c5ccc(F)cc5)nc4-c4ccc(F)cc4)CC3)ncn2)CN1` (centres unmarked) [Example 07.09.24.], the EC50 is 101 nM.

Take `COc1cc(N2CCN(C(=O)Cn3nc(-c4ccc(F)cc4)nc3-c3ccc(F)c(OC)c3)CC2)ncn1` [Example 07.04.079.]: the concentration for a half-maximal effect (EC50) was found to be 1330 nM.

For the compound `CCCCCc1nc(-c2ccc(F)c(C)c2)nn1CC(=O)N1CCN(c2ccccn2)CC1` [Example 07.04.124.], the EC50 came to 125 nM.

For `COc1ccc(-c2nc(-c3ccc(OC)cc3)n(CC(=O)N3CCN(c4ccc(C(N)=O)cn4)CC3)n2)cc1` [Example 07.02.17.], the concentration for a half-maximal effect (EC50) was 644 nM.

For `COc1cc(N2CCN(C(=O)Cn3nc(-c4cc(C)cc(C)c4)nc3-c3ccccc3)CC2)ncn1` [Example 07.10.36.], the 50% effective concentration (EC50) stood at 121 nM.

As for `COc1ccc(-c2nc(-c3ccc(F)cc3)n(CC(=O)N3CCN(c4cc(OC)ncn4)CC3)n2)cc1` [Example 07.04.034.], the half-maximal effective concentration (EC50) was 52 nM.

As to `COc1ccc(-c2nc(-c3ccccc3)n(CC(=O)N3CCN(c4ncccn4)CC3)n2)cc1C` [Example 07.10.17.], the EC50 was 43 nM.

`COc1cc(N2CCN(C(=O)Cn3nc(-c4ccc(C5CC5)cc4)nc3-c3ccccc3)CC2)ncn1` [Example 07.10.29.]: the EC50 was 219 nM.

As to `CCc1nc(-c2ccc(F)c(C)c2)nn1CC(=O)N1CCN(c2cc(OC)ccn2)CC1` [Example 07.04.094.], the EC50 was 991 nM.

On to `COc1cccc(-c2nc(-c3ccccc3)n(CC(=O)N3CCN(c4ncccn4)CC3)n2)c1` [Example 07.10.10.], for which the concentration for a half-maximal effect (EC50) was found to be 50 nM.

`COc1ccnc(N2CCN(C(=O)Cn3nc(-c4ccc(F)c(C)c4)nc3C3CCCCC3C)CC2)c1` (centres unmarked) [Example 07.04.136.]: the half-maximal effective concentration (EC50) was 1220 nM.

As to `O=C(Cn1nc(-c2ccc(F)cc2)nc1-c1ccc(F)cc1)N1CCN(c2nccc(C(F)(F)F)n2)CC1` [Example 07.03.21.], the EC50 was found to be 278 nM.

As for `COc1ccnc(N2CCN(C(=O)Cn3nc(-c4ccc(F)c(C)c4)nc3CCC(C)C)CC2)c1` [Example 07.04.120.], the concentration for a half-maximal effect (EC50) amounted to 153 nM.

As for `O=C(Cn1nc(-c2ccc(F)cc2)nc1-c1ccc(F)cc1)N1CCN(c2ccccc2O)CC1` [Example 07.04.010.], the EC50 was determined as 1200 nM.

As for `Cc1ccnc(N2CCN(C(=O)Cn3nc(-c4ccc(F)c(C)c4)nc3CCC(C)C)CC2)c1` [Example 07.04.121.], the concentration for a half-maximal effect (EC50) was 209 nM.

On to `CN1CCC(Nc2cc(N3CCN(C(=O)Cn4nc(-c5ccc(F)cc5)nc4-c4ccc(F)cc4)CC3)ncn2)CC1` [Example 07.08.16.], for which the EC50 was 1160 nM.

For the compound `O=C(Cn1nc(-c2ccccc2)nc1-c1ccccc1)N1CCN(c2ccccn2)CC1` [Example 07.02.27.], the concentration for a half-maximal effect (EC50) was 353 nM.

As for `CCN(C)c1cc(N2CCN(C(=O)Cn3nc(-c4ccc(F)cc4)nc3-c3ccc(F)cc3)CC2)ncn1` [Example 07.08.19.], the EC50 worked out at 208 nM.

Regarding `O=C(Cn1nc(-c2ccc(F)cc2)nc1-c1ccc(F)cc1)N1CCN(c2cccnc2)CC1` [Example 07.04.004.], the EC50 was 600 nM.

As to `COc1ccc(-c2nc(-c3ccccc3)n(CC(=O)N3CCN(c4cc(OC)ccn4)CC3)n2)cc1` [Example 07.04.056.], the EC50 worked out at 64 nM.

Regarding `CCOc1ccnc(N2CCN(C(=O)Cn3nc(-c4ccc(F)cc4)nc3-c3ccc(F)cc3)CC2)c1` [Example 07.05.01., 2-(3,5-Bis-(4-fluoro-phenyl)-(1,2,4)triazol-1-yl)-1-(4-(4-ethoxy-pyridin-2-yl)-piperazin-1-yl)-ethanone], the EC50 worked out at 50 nM.

Take `COc1cc(N2CCN(C(=O)Cn3nc(-c4ccc(OC(F)F)cc4)nc3-c3ccccc3)CC2)ncn1` [Example 7.04.162]: the concentration for a half-maximal effect (EC50) stood at 19 nM.

On to `Cc1cc(-c2nc(-c3ccccc3)n(CC(=O)N3CCN(c4ncc(Br)cn4)CC3)n2)ccc1Br` [Example 07.04.057.], for which the EC50 is 75 nM.

As for `CC(C)Oc1ccc(-c2nc(-c3ccccc3)n(CC(=O)N3CCN(c4ncccn4)CC3)n2)cc1` [Example 07.10.18.], the EC50 amounted to 1050 nM.

Regarding `COc1ccnc(N2CCN(C(=O)Cn3nc(-c4ccc(F)c(C)c4)nc3C3CCC(C)CC3)CC2)c1` (centres unmarked) [Example 07.04.131.], the EC50 amounted to 1000 nM.

As for `COc1cc(N2CCN(C(=O)Cn3nc(-c4ccc(F)c(C)c4)nc3C3CCC(C)CC3)CC2)ncn1` (centres unmarked) [Example 07.04.132.], the EC50 was found to be 960 nM.

In the case of `O=C1CCCN1CCCOc1cc(N2CCN(C(=O)Cn3nc(-c4ccc(F)cc4)nc3-c3ccc(F)cc3)CC2)ncn1` [Example 07.09.27.], the EC50 is 86 nM.

`COc1cc(N2CCN(C(=O)Cn3nc(-c4ccc(F)c(C)c4)nc3C3CCCCC3C)CC2)ncn1` (centres unmarked) [Example 07.04.137.]: the EC50 came out at 1050 nM.

For the compound `COc1cc(N2CCN(C(=O)Cn3nc(-c4ccc(C)c(C)c4)nc3-c3ccccc3)CC2)ncn1` [Example 07.10.30.], the EC50 was determined as 50 nM.

As to `O=C(Cn1nc(-c2ccc(F)cc2)nc1-c1ccc(F)cc1)N1CCN(c2cc(O[C@H]3CCOC3)ncn2)CC1` [Example 07.09.11.], the EC50 was 56 nM.

As for `O=C(Cn1nc(-c2ccc(F)cc2)nc1-c1ccc(F)cc1)N1CCN(c2cc(OCc3cccnc3)ncn2)CC1` [Example 07.09.22.], the EC50 was found to be 39 nM.

Take `COc1cc(N2CCN(C(=O)Cn3nc(-c4cccc(C)c4)nc3-c3ccccc3)CC2)ncn1` [Example 07.10.35.]: the EC50 was 98 nM.

Consider `COc1cc(N2CCN(C(=O)Cn3nc(-c4ccc(F)cc4)nc3-c3ccc(F)cc3)CC2)ccn1` [Example 07.03.24.], for which the half-maximal effective concentration (EC50) was determined as 254 nM.

With `N#Cc1cccnc1N1CCN(C(=O)Cn2nc(-c3ccc(F)cc3)nc2-c2ccc(F)cc2)CC1` [Example 07.02.01., 2-(4-(2-(3,5-Bis-(4-fluoro-phenyl)-(1,2,4)triazol-1-yl)-acetyl)-piperazin-1-yl)-nicotinonitrile], the EC50 is 190 nM.

Consider `COc1cc(N2CCN(C(=O)Cn3nc(-c4ccc(F)c(C)c4)nc3C3CCCCC3)CC2)ncn1` [Example 07.04.065.], for which the EC50 was found to be 296 nM.

On to `CC(C)CCN(C)c1cc(N2CCN(C(=O)Cn3nc(-c4ccc(F)cc4)nc3-c3ccc(F)cc3)CC2)ncn1` [Example 07.08.08.], for which the half-maximal effective concentration (EC50) amounted to 359 nM.

Regarding `O=C(Cn1nc(-c2ccc(F)cc2)nc1-c1ccc(F)cc1)N1CCN(c2cc(OC3CCCOC3)ncn2)CC1` (centres unmarked) [Example 07.09.09.], the EC50 is 109 nM.

Regarding `CCC(C)c1nc(-c2ccc(F)c(C)c2)nn1CC(=O)N1CCN(c2ccccn2)CC1` (centres unmarked) [Example 07.04.102.], the concentration giving a half-maximal response (EC50) was found to be 998 nM.

In the case of `COc1cc(N2CCN(C(=O)Cn3nc(-c4ccccc4)nc3-c3ccc(F)c(C)c3)CC2)ncn1` [Example 07.04.074.], the EC50 came to 325 nM.

Regarding `Cc1ccnc(N2CCN(C(=O)Cn3nc(-c4ccc(F)cc4)nc3-c3ccc(F)cn3)CC2)c1` [Example 07.04.143.], the concentration for a half-maximal effect (EC50) came out at 783 nM.

As to `COc1ccc(-c2nc(-c3ccc(OC)cc3)n(CC(=O)N3CCN(c4ncccn4)CC3)n2)cc1` [Example 07.02.09.], the EC50 was found to be 61 nM.

For the compound `Cc1cc(-c2nc(C3CCC(C)CC3)n(CC(=O)N3CCN(c4ccccn4)CC3)n2)ccc1F` (centres unmarked) [Example 07.04.129.], the EC50 turned out to be 1320 nM.

Turning to `CN(c1cc(N2CCN(C(=O)Cn3nc(-c4ccc(F)cc4)nc3-c3ccc(F)cc3)CC2)ncn1)C1CC1` [Example 07.08.18.], the concentration giving a half-maximal response (EC50) is 455 nM.

With `COc1cc(N2CCN(C(=O)Cn3nc(-c4ccc(F)c(C)c4)nc3C3CCCC3)CC2)ncn1` [Example 07.04.112.], the EC50 worked out at 311 nM.

Take `COc1ccc(-c2nc(-c3ccccc3)n(CC(=O)N3CCN(c4cc(C)ccn4)CC3)n2)cc1` [Example 07.04.160.]: the EC50 amounted to 80 nM.

`COc1cc(N2CCN(C(=O)Cn3nc(-c4ccc(F)c(C)c4)nc3CC(C)C)CC2)ncn1` [Example 07.04.109.]: the 50% effective concentration (EC50) is 824 nM.

For the compound `N#Cc1cccc(N2CCN(C(=O)Cn3nc(-c4ccc(F)cc4)nc3-c3ccc(F)cc3)CC2)c1` [Example 07.03.06.], the EC50 was 350 nM.

Values taken from patent US8889677B2, “Substituted triazoles useful as mGlu5 receptor modulators” (Boehringer Ingellheim International GmbH, priority 2012, dated 2014).
